Key:
[1] = system: phosphorylation of the IRF-3 protein in MDA-MB-468 cells; assay: pIRF3 immunocytochemistry cell based assay; details: Homo sapiens; MDA-MB-468 cells, Poly(I:C) stimulation; read-out: pIRF3 IC50
Protocol: The purpose of the pIRF3 immunocytochemistry cell based assay was to identify small molecules which modulates TBK/IKKe kinase activity through on target substrate phosphorylation of the IRF-3 protein. On the first day of the experiment, MDA-MB-468 cells were plated in 384 well, black, clear-bottom, Poly D lysine coated plates at a density of 5000 cells/well in 45 ul of complete DMEM and allowed to adhere overnight. On the second day compounds were added to cells at a starting concentration of 10 uM with a serial dilution of 3-fold for a total of 10 points. The cells were incubated for 1 hr at 37° C. Cells were then stimulated with Poly(I:C) at a final concentration of 10 ug/ml, and were incubated for 2 hr at 37° C. Following the incubation, media was removed from the wells and the cells were fixed with 4% PFA for 15 min at RT. Cells were washed at least 3 times with PBS, and then permeabilized with ice-cold methanol for 10 min at RT. The washing step was repeated and the cells were then blocked using 10% goat serum/1% BSA, made up in PBS and allowed to incubate at RT for 1 hr. The cells were washed again and then treated with an anti-pIRF3 antibody at 4° C. overnight (1:250 dilution of Abcam ab76493 in PBS containing 1% BSA). On the third day the primary antibody was washed off and pIRF3 was detected by adding the secondary antibody conjugated to AlexaFluor488 (1:200 dilution of secondary antibody in PBS containing 1% BSA) for 1 hr at RT. Cells were washed and then counterstained with PI/RNase staining buffer for 15 min at RT and read on the Acumen Explorer laser scanning cytometer. The percentage of phosphorylation of the IRF-3 protein was calculated using the following algorithm, a modified version of the mean half width intensity (pIRF3 staining)/(PI staining or # of cells)×100%). IC50 curves were generated using the Genedata software.

IKKε = target: T1, IKKε (Homo sapiens, UniProt Q14164); assay: IKKe Biochemical Assay; details: read-out: IKKε IC50
T1 sequence (Q14164 1-716): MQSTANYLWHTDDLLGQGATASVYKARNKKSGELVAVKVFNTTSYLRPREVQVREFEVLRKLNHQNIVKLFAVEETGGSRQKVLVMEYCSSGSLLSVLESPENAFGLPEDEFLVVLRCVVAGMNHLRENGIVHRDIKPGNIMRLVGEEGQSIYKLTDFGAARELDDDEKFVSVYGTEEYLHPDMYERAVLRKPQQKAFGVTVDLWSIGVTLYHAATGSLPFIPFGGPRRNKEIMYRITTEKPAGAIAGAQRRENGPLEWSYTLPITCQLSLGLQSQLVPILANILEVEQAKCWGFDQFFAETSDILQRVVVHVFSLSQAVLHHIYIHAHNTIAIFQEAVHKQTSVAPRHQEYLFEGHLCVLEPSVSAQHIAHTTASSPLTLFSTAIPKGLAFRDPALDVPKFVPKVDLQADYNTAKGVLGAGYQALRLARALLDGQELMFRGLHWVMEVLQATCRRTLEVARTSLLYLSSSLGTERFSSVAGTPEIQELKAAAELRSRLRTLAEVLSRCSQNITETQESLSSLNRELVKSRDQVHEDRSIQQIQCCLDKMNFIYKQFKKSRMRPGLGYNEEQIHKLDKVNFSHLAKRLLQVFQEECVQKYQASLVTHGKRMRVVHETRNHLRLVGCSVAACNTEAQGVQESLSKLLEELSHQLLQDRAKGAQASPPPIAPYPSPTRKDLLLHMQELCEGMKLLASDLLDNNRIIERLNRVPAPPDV
In short: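 Activity was measured as mobility-shift separation of phosphorylated from unphosphorylated substrate on a LabChip EZ Reader. Compound was titrated from 30 uM final in 10 points, 1:4 steps, with 1% DMSO, and enzyme plus substrate reacted 90 min at 25° C before stop buffer. Control wells held 10 uM staurosporine.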

TBK1 = target: T2, TBK1 (Homo sapiens, UniProt Q9UHD2); assay: TBK Biochemical Assay; details: read-out: TBK1 IC50
T2 sequence (Q9UHD2 1-729): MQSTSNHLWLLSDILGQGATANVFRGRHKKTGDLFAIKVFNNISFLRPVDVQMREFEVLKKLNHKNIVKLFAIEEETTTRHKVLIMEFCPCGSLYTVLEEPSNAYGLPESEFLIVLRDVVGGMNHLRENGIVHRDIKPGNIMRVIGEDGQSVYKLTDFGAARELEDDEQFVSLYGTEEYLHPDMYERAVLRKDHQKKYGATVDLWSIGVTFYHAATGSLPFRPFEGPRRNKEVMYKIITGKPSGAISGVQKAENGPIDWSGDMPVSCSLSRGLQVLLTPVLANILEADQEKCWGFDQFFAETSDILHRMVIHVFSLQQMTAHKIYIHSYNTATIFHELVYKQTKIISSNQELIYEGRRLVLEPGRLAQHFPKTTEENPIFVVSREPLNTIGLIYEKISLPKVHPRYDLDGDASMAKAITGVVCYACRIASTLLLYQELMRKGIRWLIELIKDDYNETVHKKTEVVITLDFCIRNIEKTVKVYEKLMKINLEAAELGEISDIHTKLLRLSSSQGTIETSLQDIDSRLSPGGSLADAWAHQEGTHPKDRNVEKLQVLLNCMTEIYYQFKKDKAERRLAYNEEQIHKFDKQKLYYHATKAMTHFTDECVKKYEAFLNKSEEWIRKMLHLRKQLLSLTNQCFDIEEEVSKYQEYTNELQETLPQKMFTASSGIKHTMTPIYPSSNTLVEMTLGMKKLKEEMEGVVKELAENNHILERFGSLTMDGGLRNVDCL
In short: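 Caliper LabChip mobility-shift readout of substrate and product after 90 min of TBK1 reaction at 25° C and stop-buffer addition. Compounds tested in 1:4 serial dilution over 10 points from 30 uM final at 1% DMSO; staurosporine 10 uM final defines full inhibition.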

Compound	IC50 [1] [nM]	IC50 (IKKε) [nM]	IC50 (TBK1) [nM]
COc1cc(C(=O)N2CCC3(CCNC3=O)CC2)ccc1-c1cc2nccc(-c3ccc(NC4CCOCC4)c(C#N)c3)c2o1 [Compound 52, 5-{2-[2-Methoxy-4-(1-oxo-2,8-diaza-spiro[4.5]decane-8-carbonyl)-phenyl]-furo[3,2-b]pyridin-7-yl}-2-(tetrahydro-pyran-4-ylamino)-benzonitrile]	100 to 1000	< 100	< 100
COc1cc(C(=O)N[C@@H]2CCC[C@@H](O)[C@H]2O)ccc1-c1cc2nccc(-c3ccc(OC4CCOCC4)c(C#N)c3)c2o1 [Compound 54, 4-{7-[3-Cyano-4-(tetrahydro-pyran-4-yloxy)-phenyl]-furo[3,2-b]pyridin-2-yl}-N-((1R,2S,3R)-2,3-dihydroxy-cyclohexyl)-3-methoxy-benzamide]	100 to 1000	< 100	< 100
CN(C)C(=O)c1ccc(-c2cc3nccc(-c4ccc(N5CC[C@H](N(C)C)C5)c(C#N)c4)c3o2)cc1 [Compound 173, 4-{7-[3-Cyano-4-((S)-3-dimethylamino-pyrrolidin-1-yl)-phenyl]-furo[3,2-b]pyridin-2-yl}-N,N-dimethyl-benzamide]	1000 to 5000	100 to 1000	100 to 1000
CN(C)C(=O)c1ccc(-c2cc3ncc(F)c(-c4ccc(OC5CCOCC5)c(C#N)c4)c3o2)c(F)c1 [Compound 301, 4-[7-[3-cyano-4-(oxan-4-yloxy)phenyl]-6-fluorofuro[3,2-b]pyridin-2-yl]-3-fluoro-N,N-dimethylbenzamide]	1000 to 5000	< 100	< 100
N#Cc1cc(-c2ccnc3cc(-c4ccc(C(=O)NC5CN6CCC5CC6)cc4)oc23)ccc1OC1CCCOC1 (stereo not drawn) [Compound 171]	100 to 1000	100 to 1000	100 to 1000
COc1cc(C(=O)N(C)CCO)cnc1-c1cc2nccc(-c3ccc(NC4CCOCC4)c(C#N)n3)c2o1 [Compound 356, 6-(7-[6-cyano-5-[(oxan-4-yl)amino]pyridin-2-yl]furo[3,2-b]pyridin-2-yl)-N-(2-hydroxyethyl)-5-methoxy-N-methylpyridine-3-carboxamide]	100 to 1000	< 100	< 100
N#Cc1cc(-c2ccnc3cc(-c4ccc(C(=O)N[C@H]5CNCC[C@@H]5F)cc4)oc23)ccc1OC1CCOCC1 [Compound 135, 4-{7-[3-Cyano-4-(tetrahydro-pyran-4-yloxy)-phenyl]-furo[3,2-b]pyridin-2-yl}-N-((3S,4S)-4-fluoro-piperidin-3-yl)-benzamide]	100 to 1000	< 100	< 100
COc1cc(C(=O)N2CCCCC2)ccc1-c1cc2nccc(-c3ccc(OC4CCOCC4)c(C#N)c3)c2o1 [Compound 27, 5-{2-[2-Methoxy-4-(piperidine-1-carbonyl)-phenyl]-furo[3,2-b]pyridin-7-yl}-2-(tetrahydro-pyran-4-yloxy)-benzonitrile]	100 to 1000	< 100	< 100
COc1cc(C(=O)N(C)C)ncc1-c1cc2nccc(-c3ccc(N4CCC(F)C4)c(C#N)c3)c2o1 (stereo in doubt) [Compound 389, 5-{7-[3-Cyano-4-((S)-3-fluoro-pyrrolidin-1-yl)-phenyl]-furo[3,2-b]pyridin-2-yl}-4-methoxy-pyridine-2-carboxylic acid dimethylamide]	100 to 1000	< 100	< 100
COc1cc(C(=O)N(C)C)ccc1-c1cc2nccc(-c3ccc(OC4CCN(C)C4)c(C#N)c3)c2o1 (stereo not drawn) [Compound 149, 4-{7-[3-Cyano-4-(1-methyl-pyrrolidin-3-yloxy)-phenyl]-furo[3,2-b]pyridin-2-yl}-3-methoxy-N,N-dimethyl-benzamide]	100 to 1000	< 100	< 100
CN(C)C(=O)c1ccc(-c2cc3nccc(-c4ccc(OC5CC(CO)(CCl)C5)c(C#N)c4)c3o2)cc1 (stereo not drawn) [Compound 168, 4-{7-[4-(3-Chloromethyl-3-hydroxymethyl-cyclobutoxy)-3-cyano-phenyl]-furo[3,2-b]pyridin-2-yl}-N,N-dimethyl-benzamide]	100 to 1000	100 to 1000	100 to 1000

The next lines start with the values.

IC50 [1] [nM]	IC50 (IKKε) [nM]	IC50 (TBK1) [nM]	Compound
100 to 1000	< 100	< 100	COc1cc(C(=O)N2CCC(O)C2)ccc1-c1cc2nccc(-c3ccc(NC4CCOCC4)c(C#N)c3)c2o1 (stereo not drawn) [Compound 104, 5-{2-[4-(3-Hydroxy-pyrrolidine-1-carbonyl)-2-methoxy-phenyl]-furo[3,2-b]pyridin-7-yl}-2-(tetrahydro-pyran-4-ylamino)-benzonitrile]
< 100	< 100	< 100	COc1cc(C(=O)N2CCN(C)CC2)ccc1-c1cc2nccc(-c3ccc(OC4CCOCC4)c(C#N)c3)c2o1 [Compound 15, 5-{2-[2-Methoxy-4-(4-methyl-piperazine-1-carbonyl)-phenyl]-furo[3,2-b]pyridin-7-yl}-2-(tetrahydro-pyran-4-yloxy)-benzonitrile]
< 100	< 100	< 100	COc1cc(C(=O)N2C[C@@H]3C[C@H]2CN3C)ccc1-c1cc2nccc(-c3ccc(NC4CCOCC4)c(C#N)c3)c2o1 [Compound 515]
< 100	< 100	< 100	COc1cc(C(=O)N(C)C)ccc1-c1cc2nccc(-c3ccc(OC4CCOC[C@@H]4F)c(C#N)c3)c2o1 (mixture of isomers) [Compound 42, 4-{7-[3-Cyano-4-((S)-3-fluoro-tetrahydro-pyran-4-yloxy)-phenyl]-furo[3,2-b]pyridin-2-yl}-3-methoxy-N,N-dimethyl-benzamide]
< 100	< 100	< 100	COc1cc(C(=O)N(C)CCO)ncc1-c1cc2nccc(-c3ccc(N4CC[C@H](F)C4)c(C#N)c3)c2o1 [Compound 379, 5-{7-[3-Cyano-4-((S)-3-fluoro-pyrrolidin-1-yl)-phenyl]-furo[3,2-b]pyridin-2-yl}-4-methoxy-pyridine-2-carboxylic acid (2-hydroxy-ethyl)-methyl-amide]
